Measured values taken from patent publication US6340654B1, “Freshness-retaining agent and method for agricultural/horticultural products” (priority 1999, dated 2002).

System: fresh pieces of apple (variety: Mutsu)
Experiment: Ethylene concentration lowering effect for apple (ethylene in hermetically closed jar, tubular gas detector)
Conditions: 23° C.
[1] = Table 9, single substances 3 g, mixtures 1.5 g + 1.5 g, 20 g apple
[2] = Table 2, vs. mixing ratio, 3 g agent per 20 g apple
[3] = Table 10, vs. mixing ratio, 3 g agent per 20 g apple
[4] = Table 1, 20 g apple pieces in closed 150-mL jar, 3 g agent

Procedure: Mouths of those jars were then hermetically closed with “[sequence]” (trademark; product of American National Can Company). Those jars were left over at 23° C., and on DAY 1, DAY 3 and DAY 6, the concentrations of ethylene in the respective jars were measured by a tubular gas detector (manufactured by Gastec, Inc.). The concentration of ethylene in a jar with “KIMWIPE” alone hermetically placed therein was also measured as a control.
Mouths of those jars were then hermetically closed with “[sequence]”. Those jars were left over at 23° C., and on DAY 1, DAY 3 and DAY 6, the concentrations of ethylene in the respective jars were measured by the tubular gas detector (manufactured by Gastec, Inc.). The concentration of ethylene in a jar with “KIMWIPE” alone hermetically placed therein was also measured as a control.
In 150-mL jars with 20 g per jar of fresh pieces of apple (variety: Mutsu) placed therein, portions (0.5 to 3 g) of a freshness-retaining agent [cinnamic acid:sodium hydrogen-carbonate=1:2 (by weight)] according to the present invention—all of which were individually wrapped with “KIMWIPE” (trademark for laboratory paper produced by Jujo-Kimberly Co., Ltd.)—were placed, respectively. Mouths of those jars were then hermetically closed with “[sequence]”. Those jars were left over at 23° C., and on DAY 1 and DAY 3, the concentrations of ethylene in the respective jars were measured by the tubular gas detector (manufactured by Gastec, Inc.). The concentration of ethylene in a jar with “KIMWIPE” alone hermetically placed therein was also measured as a control.
In 150-mL jars with 20 g per jar of fresh pieces of apple (variety: Mutsu) placed therein, three freshness-retaining agents according to the present invention [1:3 (by molar ratio) mixtures of cinnamic acid and hydrogencarbonates]—all of which were individually wrapped with “KIMWIPE” (trademark for laboratory paper produced by Jujo-Kimberly Co., Ltd.)—were placed, respectively. Mouths of those jars were then hermetically closed with “[sequence]”. Those jars were left over at 23° C., and on DAY 1 and DAY 3, the concentrations of ethylene in the respective jars were measured by the tubular gas detector (manufactured by Gastec, Inc.). The concentration of ethylene in a jar with “KIMWIPE” alone hermetically placed therein was also measured as a control.
Mouths of those jars were then hermetically closed with “[sequence]”.

| SMILES | Concentration of ethylene DAY 1 [1] | Concentration of ethylene DAY 3 [1] | Concentration of ethylene DAY 1 [2] | Concentration of ethylene DAY 3 [2] | Concentration of ethylene DAY 6 [2] | Concentration of ethylene DAY 1 [3] | Concentration of ethylene DAY 3 [3] | Concentration of ethylene DAY 6 [3] | Concentration of ethylene DAY 1 [4] | Concentration of ethylene DAY 2 (Table 1, DAY 2, 20 g apple pieces in closed 150-mL jar, 3 g agent) | Concentration of ethylene DAY 6 [4] |
| --- | --- | --- | --- | --- | --- | --- | --- | --- | --- | --- | --- |
| O=C(O)CC(O)(CC(=O)O)C(=O)O [Citric acid, citric acid] | 275 ppm | 125 ppm | – | – | – | – | – | – | – | – | – |
| O=C([O-])O.[Na+] [Sodium hydrogencarbonate, sodium hydrogencarbonate] | 275 ppm | 150 ppm | 50 ppm | 75 ppm | 125 ppm | 275 ppm | 150 ppm | 150 ppm | – | – | – |
| O=C(O)C=Cc1ccccc1 [Cinnamic acid, cinnamic acid] | – | – | 38 ppm | 50 ppm | 50 ppm | – | – | – | 100 ppm | 100 ppm | 100 ppm |
| O=C([O-])CC(O)(CC(=O)[O-])C(=O)O.[Na+].[Na+] [Disodium citrate, disodium citrate] | 250 ppm | 150 ppm | – | – | – | – | – | – | – | – | – |
| O=C([O-])CC(O)(CC(=O)O)C(=O)O.[Na+] [Monosodium citrate, monosodium citrate] | 250 ppm | 125 ppm | – | – | – | – | – | – | – | – | – |
